Laboratory results from US7776885B2, “Benzimidazolone compounds having 5-HT4 receptor agonistic activity” (Pfizer, Inc., priority 2003, dated 2010).
Counter-ions that a name gives are not always drawn.

Assays:
[1] = biological target: T1, 5-HT4 receptors in the rat oesophagus (Rattus norvegicus, UniProt Q62758); assay: Functional assay in rat oesophagus TMM preparation (relaxation of carbachol-contracted tissue); conditions: 1 μM antagonist added to bath
T1 construct: The remaining inner tube of smooth muscle was known as the TMM; from tissue; host or cells: rat oesophagus tunica muscularis mucosae (TMM), male SD rats (Charles River)
Excerpt: More specifically, partial agonist activity can be measured according to the following procedures.
Male SD rats (Charles River) weighing 250-350 g were stunned and then killed by cervical dislocation. The oesophagus was dissected from immediately proximal to the stomach (including piece of stomach to mark distal end) up to the level of the trachea and then placed in fresh Krebs' solution.
The outer skeletal muscle layer was removed in one go by peeling it away from the underlying smooth muscle layer using forceps (stomach to tracheal direction). The remaining inner tube of smooth muscle was known as the TMM. This was trimmed to 2 cm from the original ‘stomach-end’ and the rest discarded.
The TMMs were mounted as whole ‘open’ tubes in longitudinal orientation in 5 ml organ baths filled with warm (32° C.) aerated Krebs. Tissues were placed under an initial tension of 750 mg and allowed to equilibrate for 60 minutes. The tissues were re-tensioned twice at 15 minute intervals during the equilibration period. The pump flow rate was set to 2 ml/min during this time.
Following equilibration, the pump was switched off. The tissues were exposed to 1 μM carbachol and contracted and reached a steady contractile plateau within 15 minutes. Tissues were then subject to 1 μM 5-HT (this was to prime the tissues). The tissues relaxed in response to 5-HT fairly rapidly—within 1 minute. […]

T1 sequence (Q62758 whole entry): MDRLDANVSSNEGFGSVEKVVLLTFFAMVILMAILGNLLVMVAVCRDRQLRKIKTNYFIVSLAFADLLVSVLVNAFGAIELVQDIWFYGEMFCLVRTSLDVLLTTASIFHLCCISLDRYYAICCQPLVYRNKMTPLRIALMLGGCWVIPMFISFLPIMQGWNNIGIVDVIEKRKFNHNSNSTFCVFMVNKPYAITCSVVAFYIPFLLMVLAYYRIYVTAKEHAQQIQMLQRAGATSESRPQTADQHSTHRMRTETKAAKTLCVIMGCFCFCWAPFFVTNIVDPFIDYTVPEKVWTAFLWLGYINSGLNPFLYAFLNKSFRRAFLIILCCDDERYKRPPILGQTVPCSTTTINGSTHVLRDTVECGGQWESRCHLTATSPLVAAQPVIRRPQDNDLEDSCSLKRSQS

melting point [°C] | SMILES | reversal of 5-HT induced relaxation [1]
194.2 | CC(C)n1c(=O)n(C(=O)NCC2CCN(CC(=O)N3CCOCC3)CC2)c2ccccc21 (as salt: oxalate) | 
 | O=C(OCCN1CCCCC1)c1c[nH]c2ccccc12 [SB 203,186, 1H-Indole-3-carboxylic acid, 2-(1-piperidinyl)ethyl ester] | reversed 5-HT induced relaxation
